This note sets out measurements from patent US9096646B2, “CXCR4 receptor compounds” (priority 2008, dated 2015).

Square brackets hold non-standard residues; d marks the D form. Peptide text beside a SMILES is read from it. * marks the point of attachment. Palmitoyl = CCCCCCCCCCCCCCCC(=O)* Some results are limits rather than exact numbers.

Chain of CXCR4 (P61073 whole entry): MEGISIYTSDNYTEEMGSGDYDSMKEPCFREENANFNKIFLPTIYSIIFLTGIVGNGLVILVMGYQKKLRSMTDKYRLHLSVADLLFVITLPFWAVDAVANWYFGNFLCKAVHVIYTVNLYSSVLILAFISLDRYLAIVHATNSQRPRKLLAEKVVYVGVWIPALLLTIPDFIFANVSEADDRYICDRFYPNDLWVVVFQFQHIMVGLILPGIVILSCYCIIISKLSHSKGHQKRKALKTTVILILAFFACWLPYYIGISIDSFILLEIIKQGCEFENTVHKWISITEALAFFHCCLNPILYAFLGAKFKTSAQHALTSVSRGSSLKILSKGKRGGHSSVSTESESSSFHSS

This assay addresses CXCR4 (Homo sapiens, UniProt P61073). The assay can be described thus: Calcium flux assay in CCRF-CEM cells (SDF-1α activation of CXCR4; intrinsic agonist activity). The class given is cell-based. Also noted: a human T-cell ALL line that endogenously expresses CXCR4; endogenous in cells; host or cells: CCRF-CEM (human T-cell ALL line). As to conditions: SDF-1α activation of CXCR4, Calcium-4 dye, read-out: IC50 (nM), CXCR4 i1 loop compound Calcium Flux Data. An excerpt:
Calcium Flux Assay is one of the most popular cell-based GPCR functional assays. It most often uses calcium sensing fluorescent dyes such as fura2 AM, fluo-4 and Calcium-4 to measure changes in intracellular calcium concentration. It is used mainly to detect GPCR signaling via Gaq subunit. Activation of these Gq-coupled GPCRs leads to activation of phospholipase C, which subsequently leads to increase in inositol phosphate production. IP3 receptors on endoplasmic reticulum sense the change then release calcium into cytoplasm. Intracellular calcium binding to the fluorescent dyes can be detected by instruments that quantify fluorescent intensities, such as FLIPR Tetra, Flexstation (MDS) and FDSS (Hamamatsu). In additional to assess Gq-couple receptor signaling, calcium flux assay can also be used to study Gs and Gi couple receptors by co-expressing CNG (cyclic nucleotide gated calcium channel) or chimeric G-proteins (Gqi5, Gsi5 for example). Activation of some Gi-coupled receptors can also be detected by calcium flux assay via Gβγmediated phospholipase C activation.
The calcium flux assay was used to assess SDF-1α activation of CXCR4 in CCRF-CEM cells (human T lymphoblasts from acute lymphoblastic leukemia). CCRF-CEM cells were seeded into 96-well black plates with clear bottom at 200K/well in RPMI 1640 media with 20 mM HEPES containing 0.2% BSA. After dye loading by incubating with Calcium-4 dye at 37° C. for 1 hour, cell plates were read at 37° C. using the Flexstation 3 workstation. The addition of test compounds or reference antagonists was accomplished either by manual pipetting or by liquid handling using the Flexstation. The latter allows the assessment of intrinsic agonist activity of the test compounds by measuring initial changes in fluorescent intensity. After incubation of 24 minutes at 37° C., SDF-1α was added and receptor activation was assessed by measuring changes in fluorescent intensity using the Flexstation.
In general terms: A change in cytosolic calcium serves as a functional read-out for many receptors and channels.
One may read the IC50 as the midpoint of a concentration-inhibition curve. For `CCCCCCCCCCCCCCCC(=O)N[C@@H](CCSC)C(=O)NCC(=O)N[C@@H](Cc1ccc(O)cc1)C(=O)N[C@@H](CCC(N)=O)C(=O)N[C@@H](CCCCN)C(=O)N[C@@H](CCCCN)C(=O)N[C@@H](CC(C)C)C(=O)N[C@@H](CCCNC(=N)N)C(=O)N[C@@H](CO)C(=O)N[C@@H](CCSC)C(=O)N[C@H](C(=O)N[C@@H](CC(=O)O)C(=O)N[C@@H](CCCCN)C(=O)N[C@@H](Cc1ccc(O)cc1)C(=O)N[C@@H](CCCNC(=N)N)C(=O)N[C@H](CC(C)C)C(N)=O)[C@@H](C)O` [Compound 159] (Palmitoyl-MGYQKKLRSMTDKYR[dL]-NH2), the IC50 is above 10000 nM.

On to `CCCCCCCCCCCCCCCC(=O)N[C@@H](CCSC)C(=O)NCC(=O)N[C@@H](Cc1ccc(O)cc1)C(=O)N[C@@H](CCC(N)=O)C(=O)N[C@@H](CCCCN)C(=O)N[C@@H](CCCCN)C(=O)N[C@@H](CC(C)C)C(=O)N[C@@H](CCCNC(=N)N)C(=O)N[C@@H](CO)C(=O)N[C@@H](CCSC)C(=O)N[C@H](C(=O)N[C@@H](CC(=O)O)C(=O)N[C@@H](CCCCN)C(=O)N[C@H](Cc1ccc(O)cc1)C(=O)N[C@@H](CCCNC(=N)N)C(=O)N[C@@H](CC(C)C)C(N)=O)[C@@H](C)O` [Compound 161] (Palmitoyl-MGYQKKLRSMTDK[dY]RL-NH2), for which the IC50 is above 10000 nM.

Take `CCCCCCCCCCCCCCCC(=O)N[C@@H](CCSC)C(=O)NCC(=O)N[C@@H](Cc1ccc(O)cc1)C(=O)N[C@@H](CCC(N)=O)C(=O)N[C@H](CCCCN)C(=O)N[C@@H](CCCCN)C(=O)N[C@@H](CC(C)C)C(=O)N[C@@H](CCCNC(=N)N)C(=O)N[C@@H](CO)C(=O)N[C@@H](CCSC)C(=O)N[C@H](C(=O)N[C@@H](CC(=O)O)C(=O)N[C@@H](CCCCN)C(=O)N[C@@H](Cc1ccc(O)cc1)C(=O)N[C@@H](C)C(=O)N[C@@H](CC(C)C)C(N)=O)[C@@H](C)O` [Compound 152] (Palmitoyl-MGYQ[dK]KLRSMTDKYAL-NH2): the half-inhibitory concentration (IC50) is above 10000 nM.

As for `CCCCCCCCCCCCCCCC(=O)N[C@@H](CCSC)C(=O)NCC(=O)N[C@@H](Cc1ccc(O)cc1)C(=O)N[C@@H](CCC(N)=O)C(=O)N[C@@H](CCCCN)C(=O)N[C@@H](CCCCN)C(=O)N[C@H](CC(C)C)C(=O)N[C@@H](CCCNC(=N)N)C(=O)N[C@@H](CO)C(=O)N[C@@H](CCSC)C(=O)N[C@H](C(=O)N[C@@H](CC(=O)O)C(=O)N[C@@H](CCCCN)C(=O)N[C@@H](Cc1ccc(O)cc1)C(=O)N[C@@H](CCCNC(=N)N)C(=O)N[C@@H](CC(C)C)C(N)=O)[C@@H](C)O` [Compound 170] (Palmitoyl-MGYQKK[dL]RSMTDKYRL-NH2), the IC50 was 72 nM.
